Where two headings read alike, the source gives them in different places.
Tests used:
[1] = In vitro cleavage of conjugate in human liver S9; conditions: Human Liver S9 (0.5 mg/mL), NADPH, 37° C, 2.0 μM
Experimental: (§1) The stability of conjugates were evaluated in one or more in vitro systems using a variety of tissue preparations following methods known in the art. […] Each preparation was incubated with test compound at 37° C. for one hour. Aliquots (50 μL) were removed at 0, 30, and 60 min and quenched with 0.1% trifluoroacetic acid in acetonitrile. Samples were then centrifuged and analyzed by LC/MS/MS.

Pancreatin = Pancreatin stability; type: in vitro ADME, porcine; conditions: 1 % (w/v) pancreatin, pH 7.5, 37° C, 5 μM
Experimental: Pancreatin Stability: Stability studies were conducted by incubating conjugate (5 μM) with 1 % (w/v) pancreatin (Sigma, P-1625, from porcine pancreas) in 0.025 M Tris buffer containing 0.5 M NaCl (pH 7.5) at 37° C. for 60 min. The reaction was stopped by addition of 2 volumes of methanol. After centrifugation at 14,000 rpm for 10 min, the supernatant was removed. and analyzed by LC/MS/MS.

[2] = In vitro cleavage of conjugate in rat liver S9; conditions: Rat Liver S9 (0.5 mg/mL), NADPH, 37° C, 2.0 μM
Experimental: as §1

[3] = Caco-2 homogenate S9 stability; type: in vitro ADME; conditions: Caco-2 S9 (0.5 mg protein per mL), 37° C, 5 μM
Experimental: Caco-2 Homogenate S9 Stability: Caco-2 cells were grown for 21 days prior to harvesting. Culture medium was removed and cell monolayers were rinsed and scraped off into ice-cold 10 mM sodium phosphate/0.15 M potassium chloride, pH 7.4. Cells were lysed by sonication at 4° C. using a probe sonicator. Lysed cells were then transferred into 1.5 mL centrifuge vials and centrifuged at 9000 g for 20 min at 4° C. The resulting supernatant (Caco-2 cell homogenate S9 fraction) was aliquoted into 0.5 mL vials and stored at −80° C. until used.
For stability studies, conjugate (5 μM) was incubated in Caco-2 homogenate S9 fraction (0.5 mg protein per mL) for 60 min at 37° C. Concentrations of intact conjugate and released drug were determined at zero time and 60 minutes using LC/MS/MS.

[4] = In vitro cleavage of conjugate in human plasma; conditions: 37° C, 2.0 μM
Experimental: as §1

human SMVT (SLC5A6) = molecular target: T1, human SMVT (SLC5A6) (Homo sapiens, UniProt Q9Y289); assay: Two-electrode voltage-clamp transport currents in SMVT-expressing Xenopus oocytes; type: cell-based; conditions: for Vmax as a % of Biotin Vmax: % max response relative to biotin, transporter-expressing oocytes, test compound 0.5 mM
T1 construct: The complete open reading frame of human SMVT (SLC5A6) was amplified; expressed in transfected cells; host or cells: Xenopus oocytes injected with 10-30 ng cRNA transcribed from the pMO plasmid
T1 sequence (Q9Y289 1-635): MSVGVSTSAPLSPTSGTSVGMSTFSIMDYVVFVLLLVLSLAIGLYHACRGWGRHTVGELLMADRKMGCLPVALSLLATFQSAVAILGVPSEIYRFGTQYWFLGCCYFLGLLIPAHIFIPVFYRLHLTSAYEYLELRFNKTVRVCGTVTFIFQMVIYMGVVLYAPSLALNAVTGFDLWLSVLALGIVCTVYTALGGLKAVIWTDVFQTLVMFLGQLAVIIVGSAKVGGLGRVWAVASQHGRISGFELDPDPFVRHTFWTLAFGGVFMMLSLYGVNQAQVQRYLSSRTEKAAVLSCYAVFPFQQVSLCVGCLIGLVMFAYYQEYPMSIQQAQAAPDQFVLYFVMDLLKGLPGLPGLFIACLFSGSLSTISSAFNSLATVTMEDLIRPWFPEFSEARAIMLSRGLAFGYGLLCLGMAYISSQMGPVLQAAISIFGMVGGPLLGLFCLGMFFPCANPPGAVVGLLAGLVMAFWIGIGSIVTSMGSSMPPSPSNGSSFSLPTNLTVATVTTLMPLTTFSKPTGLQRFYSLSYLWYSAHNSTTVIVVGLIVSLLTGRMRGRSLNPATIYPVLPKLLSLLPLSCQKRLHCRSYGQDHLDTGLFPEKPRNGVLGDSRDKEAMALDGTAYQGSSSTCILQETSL
Source text: “Vmax” and “KM” of a compound for a transporter (e.g., the SMVT transporter) are defined in accordance with convention. Vmax is the number of molecules of compound transported per unit time at saturating concentration of the compound. KM is the concentration of the compound at which the compound is transported at half of Vmax. In general, a high value Of Vmax is desirable for a substrate of a transporter. A low value of KM is desirable for transport of low concentrations of a compound, and a high value of KM is desirable for transport of high concentrations of a compound. Vmax is affected both by the intrinsic turnover rate of a transporter (molecules/transporter protein) and transporter density in plasma membrane that depends on expression level. For these reasons, the intrinsic capacity of a compound to be transported by a particular transporter is usually expressed as the ratio (or percent) of the Vmax of the compound/Vmax of a control compound known to be a substrate for the transporter.
cRNA for oocyte expression was prepared by linearization of plasmid cDNA and in vitro transcription using T7 polymerase (Epicentre Ampliscribe kit). Xenopus oocytes were prepared and maintained as previously described (Collins et al., PNAS […]:5456-5460 (1997)) and injected with 10-30 ng RNA. Transport currents were measured 2-6 days later using two-electrode voltage-clamp (Axon Instruments). All experiments were performed using a modified oocyte ringers solution (90 mM NaCl, 2 mM KCl, 1.8 mM CaCl2, 1 mM MgCl2, and 10 mM NaHEPES, pH 7.4; in Na^+-free solutions […] choline chloride was substituted for NaCl). The membrane potential of oocytes was held at −60 mV and current traces acquired using PowerLab software (ADInstruments). Full 7-concentration dose-responses were performed for each compound. […] Half-maximal concentrations were calculated using non-linear regression curve fitting software (Prism) with the Hill co-efficient fixed to 1. To ensure that currents were specific for the over-expressed transporter, all compounds were tested against uninjected oocytes.

[5] = In vitro cleavage of conjugate in rat plasma; conditions: 37° C, 2.0 μM
Experimental: as §1

[6] = rat, 2 μM
Experimental: as §1

[7] = rat, 2 μM, pH 7.4
Experimental: as §1

hSMVT = molecular target: T2, hSMVT (Homo sapiens, UniProt Q9Y289); assay: Radiolabeled competition assay in SMVT-expressing CHO cells; type: cell-based
T2 sequence (Q9Y289 1-635): T1 sequence (Q9Y289 1-635)
Source text: The complete open reading frame of human SMVT (SLC5A6) was amplified from human cDNA prepared from intestinal mRNA. Gene-specific oligonucleotide primers were designed against Genbank sequences (NM-021095). Amplified PCR products were cloned into a modified version of the mammalian expression vector pcDNA3 (termed pMO) that was engineered to contain the 5′ and 3′ untranslated regions from the Xenopus beta-globin gene. All clones were completely sequenced and tested for function by transient transfection in HEK293 cells.
Stable clones of CHOK1 cells were obtained by electroporation, selection in G418, and single cell sorting using FACS ([…] cell sorting, Cytomation). Stable clones expressing SMVT were identified by enhanced uptake of radiolabeled substrates. For cell uptake studies, stable CHOK1 clones were seeded into polylysine coated 96-well microtiter plates and grown for 2-3 days. Cells were incubated with experimental solutions (combinations of radiolabeled and unlabeled compounds) for 30 minutes at room temperature, washed four times, and lysed in scintillation solution. Accumulation of radiolabeled molecules was measured in a microtiter scintillation plate reader (Perkin Elmer). Inhibition constants (IC50s) were calculated using curve-fitting software (Prism).

human or rat SMVT = conditions: voltage-clamped Xenopus oocytes; cited from earlier work
in vivo = conditions: male, Sprague-Dawley, rat, po
Experimental: Test compounds were administered as an intravenous bolus injection or by oral gavage to groups of four to six adult male Sprague-Dawley rats (weight approx 250 g) as solutions in water or water/ethanol (90:10). The doses ranged between 10 and 200 mg per kg body weight (i.e. 0.04-0.8 mmole/kg). Animals were fasted overnight before the study and for 4 hours post-dosing. Blood samples (1.0 mL) were obtained via a jugular vein cannula at intervals over 24 hours after oral dosing. Blood was processed immediately for plasma and plasma was frozen at −80° C. until analyzed.
Concentrations of test compound in plasma were determined using an API 2000 LC/MS/MS instrument equipped with an Agilent 1100 binary pump and an Agilent autosampler. The column was a Zorbax XDB C8 4.6*150 mm column at room temperature. The mobile phases were 0.1% formic acid (A) and acetonitrile with 0.1% formic acid (B). The gradient condition was: 5% B for 1 min, increasing to 98% B in 3 min and maintained for 2.5 min. […] The peaks were integrated using Analyst 1.1 quantitation software.
Oral bioavailability (F) was determined by comparison of the area under the concentration versus time curve (AUC) following oral administration of the conjugate or intravenous administration of the parent agent at equimolar doses.

[8] = radiolabeled competition assay in SMVT-expressing CHO cells, read-out: IC50

CCC(=O)OC(OC(=O)NCC1(CC(=O)O)CCCCC1)C(C)C (stereo not drawn) [(9), 1-{[(α-Propanoyloxyisobutoxy)carbonyl]aminomethyl}-1-Cyclohexane Acetic Acid]
% of Drug Released from Conjugate after 60 min [1]: 83% | % of Drug Released from Conjugate after 60 min (Pancreatin): 25% | % of Drug Released from Conjugate after 60 min [2]: 62% | % of Drug Released from Conjugate after 60 min [3]: 65% | % of Drug Released from Conjugate after 60 min [4]: 7% | Vmax as a % of Biotin Vmax (human SMVT (SLC5A6)): 19% | % of Drug Released from Conjugate after 60 min [5]: 69%

CC(OC(=O)NCC1(CC(=O)O)CCCCC1)OC(=O)C(C)C (stereo not drawn) [(6), 1-{[(α-Isobutanoyloxyethoxy)carbonyl]aminomethyl}-1-Cyclohexane Acetic Acid]
Vmax as a % of Biotin Vmax (human SMVT (SLC5A6)): 46% | % of Drug Released from Conjugate after 60 min [6]: 23% | % of Drug Released from Conjugate after 60 min [7]: 52% | IC50 (hSMVT; [8]): 100 µM

NCC1(CC(=O)O)CCCCC1 [Gabapentin, reference compound]
Vmax as a % of Biotin Vmax (human SMVT (SLC5A6)): 0% | IC50 (hSMVT): > 500 µM

O=C(O)CCCC[C@@H]1SC[C@@H]2NC(=O)N[C@@H]21 [biotin]
Km (human or rat SMVT): 5 to 20 µM | plasma concentration at the highest dose (in vivo): ~4000 ng/mL | bioavailability (in vivo; 25 mg/kg): 100% | bioavailability (in vivo; 200 mg/kg): 27%

CC(C)(C)C(=O)OCOC(=O)NCC1(CC(=O)O)CCCCC1 [(1), 1-{[(α-Pivaloyloxymethoxy)carbonyl]aminomethyl}-1-Cyclohexane Acetic Acid]
Vmax as a % of Biotin Vmax (human SMVT (SLC5A6)): 21% | IC50 (hSMVT; [8]): 450 µM

CC(C)(CO)[C@@H](O)C(=O)NCCC(=O)[O-].[Na+] [pantothenate, sodium pantothenate]
plasma concentration at the highest dose (in vivo): ~4000 ng/mL | bioavailability (in vivo; 25 mg/kg): 35% | bioavailability (in vivo; 200 mg/kg): 10%

N-acetyl-D-Lys(ε-biotin)-D-Arg-D-Arg-D-Arg-D-Gln-D-Arg-D-Arg-D-Lys-D-Lys-D-Arg-NH2 [biotinylated decapeptide, reference compound]
specific sodium-dependent current (SMVT substrate activity) (human SMVT (SLC5A6); 20 μM peptide, presence and absence of 100 mM Na+): no specific, sodium-dependent current

Source: patent publication US20030158089A1, “Administrative agents via the SMVT transporter” (priority 2002, published 2003)
